Test results: ChEMBL document CHEMBL5214927, “Recent advance on carbamate-based cholinesterase inhibitors as potential multifunctional agents against Alzheimer's disease” (Eur J Med Chem, 2022)

What was measured:
Acetylcholinesterase [1] = molecular target: Acetylcholinesterase (Electrophorus electricus, UniProt O42275); assay: Inhibition of electric eel AChE using acetylthiocholine iodide as substrate preincubated for 5 mins followed by substrate addition measured after 2 mins by Ellman's method
Cholinesterase [2] = molecular target: T1, Cholinesterase (Equus caballus, UniProt P81908); assay: Inhibition of horse BChE using butyrylthiocholine as substrate measured for 5 mins by Ellman's method
Butyrylcholinesterase [3] = molecular target: T2, Butyrylcholinesterase (Rattus norvegicus, UniProt Q9JKC1); assay: Inhibition of Sprague-Dawley rat serum BChE using butyrylthiocholine iodide as substrate incubated for 15 mins by Ellman's method
Acetylcholinesterase [4] = molecular target: T3, Acetylcholinesterase (Rattus norvegicus, UniProt P37136); assay: Inhibition of Sprague-Dawley rat cortex AChE using acetylthiocholine iodide as substrate incubated for 15 mins in presence of iso-OMPA inhibitor by Ellman's method
T3 sequence (P37136 whole entry): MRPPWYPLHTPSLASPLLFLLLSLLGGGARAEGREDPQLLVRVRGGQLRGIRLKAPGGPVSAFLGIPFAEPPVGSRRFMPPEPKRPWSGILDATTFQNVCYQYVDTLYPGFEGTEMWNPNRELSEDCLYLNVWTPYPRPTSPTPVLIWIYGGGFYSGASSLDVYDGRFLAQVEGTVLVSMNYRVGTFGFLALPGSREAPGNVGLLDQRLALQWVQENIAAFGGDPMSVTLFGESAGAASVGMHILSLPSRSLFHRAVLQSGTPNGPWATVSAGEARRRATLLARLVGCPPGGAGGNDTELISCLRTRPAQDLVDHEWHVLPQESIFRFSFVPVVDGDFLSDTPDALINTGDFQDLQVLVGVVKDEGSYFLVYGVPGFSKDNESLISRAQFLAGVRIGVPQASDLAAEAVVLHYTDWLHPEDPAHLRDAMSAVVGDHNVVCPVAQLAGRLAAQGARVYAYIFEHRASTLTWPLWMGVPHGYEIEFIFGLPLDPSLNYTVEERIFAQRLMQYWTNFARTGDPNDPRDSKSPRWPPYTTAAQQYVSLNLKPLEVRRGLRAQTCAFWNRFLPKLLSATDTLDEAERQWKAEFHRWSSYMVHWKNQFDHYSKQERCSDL

[5] = molecular target: T4, Amine oxidase [flavin-containing] A (Homo sapiens, UniProt P21397); assay: Displacement of 14C-5-hydroxytryptamine creatinine disulfate from MAO-A (unknown origin) preincubated for 60 mins followed by substrate addition measured after 30 mins in presence of selegiline by liquid scintillation counting method
T4 sequence (P21397 whole entry): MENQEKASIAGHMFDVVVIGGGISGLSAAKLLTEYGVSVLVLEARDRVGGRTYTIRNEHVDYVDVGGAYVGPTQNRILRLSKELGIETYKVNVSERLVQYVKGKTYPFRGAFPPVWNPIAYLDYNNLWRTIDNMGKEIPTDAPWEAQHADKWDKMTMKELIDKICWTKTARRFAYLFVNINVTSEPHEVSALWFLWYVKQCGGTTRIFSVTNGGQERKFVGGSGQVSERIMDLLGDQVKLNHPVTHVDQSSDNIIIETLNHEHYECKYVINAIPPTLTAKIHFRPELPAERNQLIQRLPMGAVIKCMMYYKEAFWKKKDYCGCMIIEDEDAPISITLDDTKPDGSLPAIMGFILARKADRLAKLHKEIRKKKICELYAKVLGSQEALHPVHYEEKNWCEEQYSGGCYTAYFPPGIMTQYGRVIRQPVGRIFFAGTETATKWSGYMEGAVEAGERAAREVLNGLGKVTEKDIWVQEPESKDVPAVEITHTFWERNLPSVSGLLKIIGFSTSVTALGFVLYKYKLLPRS

[6] = molecular target: T5, Amine oxidase [flavin-containing] B (Homo sapiens, UniProt P27338); assay: Displacement of 14C-phenylethylamine from MAO-B (unknown origin) preincubated for 60 mins followed by substrate addition measured after 20 mins in presence of clorgyline by liquid scintillation counting method
T5 sequence (P27338 whole entry): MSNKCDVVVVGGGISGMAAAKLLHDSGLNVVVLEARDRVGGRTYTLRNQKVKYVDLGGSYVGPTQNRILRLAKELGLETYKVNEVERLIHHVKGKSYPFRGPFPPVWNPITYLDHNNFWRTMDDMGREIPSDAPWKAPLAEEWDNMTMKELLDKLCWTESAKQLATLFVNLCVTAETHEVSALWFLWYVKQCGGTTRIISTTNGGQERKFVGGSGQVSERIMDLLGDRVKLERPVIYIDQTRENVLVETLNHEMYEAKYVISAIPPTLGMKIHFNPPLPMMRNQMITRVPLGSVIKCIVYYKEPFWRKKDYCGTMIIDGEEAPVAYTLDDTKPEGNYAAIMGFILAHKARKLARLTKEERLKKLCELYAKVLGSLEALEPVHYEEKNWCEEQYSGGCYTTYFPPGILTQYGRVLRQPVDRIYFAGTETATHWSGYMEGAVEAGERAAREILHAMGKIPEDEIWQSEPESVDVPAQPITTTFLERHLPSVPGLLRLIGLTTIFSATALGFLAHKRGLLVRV

Cholinesterase [7] = molecular target: T1, Cholinesterase; assay: Inhibition of equine serum BChE using butyrylthiocholine as substrate preincubated for 60 mins by Ellman's method
[8] = Selectivity index, ratio of IC50 for human red blood cell AChE to IC50 for equine serum BChE
Acetylcholinesterase [9] = molecular target: Acetylcholinesterase (Homo sapiens, UniProt P22303); assay: Inhibition of recombinant human AChE using acetylthiocholine as substrate preincubated for 20 mins followed by substrate addition measured after 6 mins by Ellman's method
[10] = molecular target: Acetylcholinesterase and butyrylcholinesterase (AChE and BChE) (Rattus norvegicus) (UniProt P37136+Q9JKC1); assay: Selectivity index, ratio of IC50 for rat AChE to IC50 for rat BChE; type: protein assay
Butyrylcholinesterase [11] = molecular target: T2, Butyrylcholinesterase; assay: Inhibition of rat BChE
Acetylcholinesterase [12] = molecular target: T3, Acetylcholinesterase; assay: Inhibition of rat AChE

T2 sequence (Q9JKC1 whole entry): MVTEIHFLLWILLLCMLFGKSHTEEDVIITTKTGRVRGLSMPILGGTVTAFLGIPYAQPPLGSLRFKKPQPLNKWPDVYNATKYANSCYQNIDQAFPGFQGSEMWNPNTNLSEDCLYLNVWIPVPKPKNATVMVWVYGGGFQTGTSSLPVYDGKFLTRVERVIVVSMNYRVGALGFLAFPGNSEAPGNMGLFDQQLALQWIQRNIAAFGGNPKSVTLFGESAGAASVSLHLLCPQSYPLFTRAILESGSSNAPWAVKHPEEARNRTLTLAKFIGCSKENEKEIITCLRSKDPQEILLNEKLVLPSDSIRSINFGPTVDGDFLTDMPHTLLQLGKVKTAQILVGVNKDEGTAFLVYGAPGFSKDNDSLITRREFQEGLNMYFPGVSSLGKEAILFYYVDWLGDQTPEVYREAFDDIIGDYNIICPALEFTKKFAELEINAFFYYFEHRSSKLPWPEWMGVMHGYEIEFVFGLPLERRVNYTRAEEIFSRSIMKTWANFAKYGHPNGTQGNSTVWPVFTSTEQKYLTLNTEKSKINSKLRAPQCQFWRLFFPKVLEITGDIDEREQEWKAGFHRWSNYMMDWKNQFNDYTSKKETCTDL
T1 sequence (P81908 whole entry): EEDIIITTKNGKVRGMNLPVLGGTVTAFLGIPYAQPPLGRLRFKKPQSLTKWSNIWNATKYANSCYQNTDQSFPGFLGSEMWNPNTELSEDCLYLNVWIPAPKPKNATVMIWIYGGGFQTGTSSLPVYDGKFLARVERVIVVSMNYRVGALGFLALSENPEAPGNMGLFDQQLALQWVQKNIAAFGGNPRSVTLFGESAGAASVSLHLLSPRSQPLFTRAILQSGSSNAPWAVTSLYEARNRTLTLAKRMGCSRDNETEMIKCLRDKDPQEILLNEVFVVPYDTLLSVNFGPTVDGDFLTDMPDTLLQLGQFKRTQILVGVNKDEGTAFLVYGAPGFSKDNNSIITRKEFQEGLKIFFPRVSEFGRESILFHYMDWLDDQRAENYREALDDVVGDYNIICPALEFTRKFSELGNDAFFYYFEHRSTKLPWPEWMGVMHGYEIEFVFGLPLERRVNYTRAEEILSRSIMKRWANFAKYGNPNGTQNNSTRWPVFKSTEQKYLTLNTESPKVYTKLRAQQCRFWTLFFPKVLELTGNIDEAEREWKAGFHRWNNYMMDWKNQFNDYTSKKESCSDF
Chain of Acetylcholinesterase (Homo sapiens, UniProt P22303) (P22303 whole entry): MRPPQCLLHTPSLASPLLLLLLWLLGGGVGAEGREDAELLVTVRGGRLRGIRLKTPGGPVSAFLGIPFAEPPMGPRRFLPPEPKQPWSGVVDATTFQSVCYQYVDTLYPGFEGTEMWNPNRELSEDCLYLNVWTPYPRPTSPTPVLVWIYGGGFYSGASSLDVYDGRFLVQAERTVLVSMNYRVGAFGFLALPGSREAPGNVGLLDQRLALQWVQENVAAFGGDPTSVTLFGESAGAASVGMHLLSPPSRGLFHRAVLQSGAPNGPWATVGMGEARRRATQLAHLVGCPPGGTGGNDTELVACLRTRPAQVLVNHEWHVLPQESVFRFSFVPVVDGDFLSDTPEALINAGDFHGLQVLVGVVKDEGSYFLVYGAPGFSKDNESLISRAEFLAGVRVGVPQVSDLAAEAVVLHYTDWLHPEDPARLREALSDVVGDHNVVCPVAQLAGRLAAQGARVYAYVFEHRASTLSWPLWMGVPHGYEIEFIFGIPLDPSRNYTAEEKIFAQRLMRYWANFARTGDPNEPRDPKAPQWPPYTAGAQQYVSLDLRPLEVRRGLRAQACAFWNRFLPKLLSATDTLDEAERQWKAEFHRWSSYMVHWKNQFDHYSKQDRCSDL
Chain of Acetylcholinesterase and butyrylcholinesterase (AChE and BChE) (Rattus norvegicus) (Q9JKC1 1-597, one chain of several): as the sequence (Q9JKC1 whole entry) above
Chain of Acetylcholinesterase (Electrophorus electricus, UniProt O42275) (O42275 whole entry): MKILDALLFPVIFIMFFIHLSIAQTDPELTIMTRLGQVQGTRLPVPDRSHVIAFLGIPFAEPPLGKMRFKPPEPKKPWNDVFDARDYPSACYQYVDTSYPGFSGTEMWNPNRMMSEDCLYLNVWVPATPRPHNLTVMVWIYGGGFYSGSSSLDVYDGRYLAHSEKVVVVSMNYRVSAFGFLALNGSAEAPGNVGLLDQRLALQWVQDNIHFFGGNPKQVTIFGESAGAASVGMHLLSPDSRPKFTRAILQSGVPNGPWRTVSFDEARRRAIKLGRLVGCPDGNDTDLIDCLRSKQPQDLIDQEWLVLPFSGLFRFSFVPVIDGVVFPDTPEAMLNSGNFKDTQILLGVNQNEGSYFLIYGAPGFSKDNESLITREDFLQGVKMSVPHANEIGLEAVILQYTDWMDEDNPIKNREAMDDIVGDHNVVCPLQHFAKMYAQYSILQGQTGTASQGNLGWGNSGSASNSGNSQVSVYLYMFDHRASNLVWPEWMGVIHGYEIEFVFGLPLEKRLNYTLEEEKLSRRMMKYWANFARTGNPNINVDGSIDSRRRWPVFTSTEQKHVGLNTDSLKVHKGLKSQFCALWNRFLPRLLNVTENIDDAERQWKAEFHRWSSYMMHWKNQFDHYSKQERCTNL

Q: Which IC50 (Acetylcholinesterase [1]) does the source give for `CCOC(=O)Nc1ccc(N2CCN(c3ccccc3OC)CC2)cc1` here?
A: The IC50 was 93.5 nM.

Q: For `O=C(Nc1ccccc1)Oc1cccc(CN2CCN(c3ccccc3)CC2)c1`, which IC50 (Cholinesterase [2]) is on record?
A: The IC50 was 2000 nM.

Q: Which results are given for `O=C(Oc1ccc(/C=C/c2cc(OC(=O)N3CCN(Cc4ccccc4)CC3)cc(OC(=O)N3CCN(Cc4ccccc4)CC3)c2)cc1)N1CCN(Cc2ccccc2)CC1`?
A: IC50 (Butyrylcholinesterase [3]): 1130 nM; IC50 (Acetylcholinesterase [4]): 4110 nM

Q: What does the source list for `C#CCN(C)C(C)Cc1cccc(OC(=O)N(C)CC)c1` (configuration not stated)?
A: IC50 [5]: 120 nM; IC50 [6]: 100 nM; IC50 (Cholinesterase [7]): 1500 nM; Ratio IC50 [8]: 153

Q: With `CC[C@@]1(c2cccc(OC(=O)Nc3ccccc3)c2)CCCCN(C)C1` as the compound, how does the IC50 (Acetylcholinesterase [9]) read?
A: The IC50 was 274 nM.

Q: Which results are given for `CN(C)C(=O)Oc1cc(OC(=O)N(C)C)cc(C(O)CNC(C)(C)C)c1` (configuration not stated) [BAMBUTEROL]?
A: Ratio IC50 [10]: 10000; IC50 (Butyrylcholinesterase [11]): 3 nM; IC50 (Acetylcholinesterase [12]): 30000 nM
